Experimental data: paper PMC7044277 (Nature Communications, 2020)
Where “and” joins values, the source holds several entries; their conditions need not be identical. Equal entries are not always repeated.

Legend:
Assay type in all cases: cell-based
320 non-olfactory GPCRs [1] = biological target: 320 non-olfactory GPCRs (Homo sapiens, UniProt P21728)
320 non-olfactory GPCRs [2] = biological target: T1, 320 non-olfactory GPCRs (Homo sapiens, UniProt P29274)
T1 construct: expressed in transfected cells; host or cells: HTLA cells
T1 sequence (P29274 whole entry): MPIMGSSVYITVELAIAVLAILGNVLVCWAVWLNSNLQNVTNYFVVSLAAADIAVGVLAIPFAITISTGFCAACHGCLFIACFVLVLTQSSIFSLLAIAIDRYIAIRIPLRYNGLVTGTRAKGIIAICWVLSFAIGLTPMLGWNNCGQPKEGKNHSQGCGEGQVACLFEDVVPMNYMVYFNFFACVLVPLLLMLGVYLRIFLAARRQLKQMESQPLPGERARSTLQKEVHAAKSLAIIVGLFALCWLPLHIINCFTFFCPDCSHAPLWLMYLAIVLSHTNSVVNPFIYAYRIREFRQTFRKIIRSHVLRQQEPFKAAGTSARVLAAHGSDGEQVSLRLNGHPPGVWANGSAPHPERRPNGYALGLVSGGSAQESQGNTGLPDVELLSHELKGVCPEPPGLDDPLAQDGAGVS

320 non-olfactory GPCRs [3] = biological target: 320 non-olfactory GPCRs (Homo sapiens, UniProt P35462)
Sequence of 320 non-olfactory GPCRs (Homo sapiens, UniProt P35462) (P35462 whole entry): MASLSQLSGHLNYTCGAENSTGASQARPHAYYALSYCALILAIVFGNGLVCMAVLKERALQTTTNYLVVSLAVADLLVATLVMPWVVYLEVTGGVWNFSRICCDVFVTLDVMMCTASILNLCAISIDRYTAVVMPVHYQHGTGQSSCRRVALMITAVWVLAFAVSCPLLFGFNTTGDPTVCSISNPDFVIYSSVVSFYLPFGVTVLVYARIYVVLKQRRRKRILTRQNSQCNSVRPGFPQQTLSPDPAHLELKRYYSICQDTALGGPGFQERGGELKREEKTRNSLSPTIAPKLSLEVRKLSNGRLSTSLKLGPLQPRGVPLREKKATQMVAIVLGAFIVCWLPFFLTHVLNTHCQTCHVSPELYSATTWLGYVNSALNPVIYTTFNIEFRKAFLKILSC

320 non-olfactory GPCRs [4] = biological target: T2, 320 non-olfactory GPCRs (Homo sapiens, UniProt Q96G91); conditions: receptor P2RY11; replicate values, Fig_4g
T2 construct: expressed in transfected cells; host or cells: HTLA cells
T2 sequence (Q96G91 whole entry): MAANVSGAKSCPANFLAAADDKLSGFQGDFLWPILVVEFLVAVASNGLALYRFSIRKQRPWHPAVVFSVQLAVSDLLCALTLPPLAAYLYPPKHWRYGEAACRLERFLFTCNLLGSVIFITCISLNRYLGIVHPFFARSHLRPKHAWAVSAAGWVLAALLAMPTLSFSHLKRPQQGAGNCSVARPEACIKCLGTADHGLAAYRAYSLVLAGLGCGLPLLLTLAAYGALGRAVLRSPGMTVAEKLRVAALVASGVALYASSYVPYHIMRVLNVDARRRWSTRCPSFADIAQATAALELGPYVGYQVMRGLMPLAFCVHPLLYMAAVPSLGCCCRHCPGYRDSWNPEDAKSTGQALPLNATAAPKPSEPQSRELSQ
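Wherever Fold of Basal is given: compound tested at 1 µM final concentration.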
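Wherever GPCRome agonism screen response is given: fold over basal response of each receptor without drug.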

Sequence of 320 non-olfactory GPCRs (Homo sapiens, UniProt P21728) (P21728 whole entry): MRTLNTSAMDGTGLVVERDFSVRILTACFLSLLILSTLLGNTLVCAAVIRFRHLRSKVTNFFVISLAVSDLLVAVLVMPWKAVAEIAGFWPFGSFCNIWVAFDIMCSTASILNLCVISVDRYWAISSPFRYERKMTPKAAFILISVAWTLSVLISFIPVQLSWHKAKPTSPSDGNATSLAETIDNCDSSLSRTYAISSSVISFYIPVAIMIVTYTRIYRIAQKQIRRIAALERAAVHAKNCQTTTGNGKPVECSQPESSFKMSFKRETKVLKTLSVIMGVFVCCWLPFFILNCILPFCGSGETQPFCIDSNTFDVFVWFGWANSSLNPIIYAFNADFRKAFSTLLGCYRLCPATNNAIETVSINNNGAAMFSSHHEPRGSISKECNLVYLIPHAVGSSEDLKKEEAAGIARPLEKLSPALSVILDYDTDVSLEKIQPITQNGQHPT

CCOc1cccc2cc(C(C)NCC3(O)CCCCC3)oc12 (stereo not shown) [O4LE6]
Fold of Basal (320 non-olfactory GPCRs [1]): 0.7632 and 1.021 and 0.953 and 0.8141
Fold of Basal (320 non-olfactory GPCRs [2]): 0.5279 and 0.6435 and 0.5264 and 0.5735
Fold of Basal (320 non-olfactory GPCRs [3]): 9.324 and 11.1304 and 9.776 and 11.3977
GPCRome agonism screen response (320 non-olfactory GPCRs [4]): 1.047 and 1.146 and 1.063 and 1.471
